Results published in US20040072825A1, “2-(2-(4-((2r)-2-methyl-3-(10h-phenothiazin-10-yl)propyl)-1-piperazinyl)-ethoxy) ethanol, process for the preparation thereof, pharmaceutical compositions containing said compound and therapeutic uses thereof” (priority 2000, published 2004).
“Also recorded” adds a separate entry of the source. Marks after values point to notes of the source that are not given here.

Columns and labels:
[1] = target: T1, 5-HT3 receptor (Homo sapiens, UniProt P46098); assay: Radioligand binding, 5-HT3 receptor; conditions: mean of duplicate, read-out: percent inhibition of control specific binding
T1 sequence (P46098 24-478): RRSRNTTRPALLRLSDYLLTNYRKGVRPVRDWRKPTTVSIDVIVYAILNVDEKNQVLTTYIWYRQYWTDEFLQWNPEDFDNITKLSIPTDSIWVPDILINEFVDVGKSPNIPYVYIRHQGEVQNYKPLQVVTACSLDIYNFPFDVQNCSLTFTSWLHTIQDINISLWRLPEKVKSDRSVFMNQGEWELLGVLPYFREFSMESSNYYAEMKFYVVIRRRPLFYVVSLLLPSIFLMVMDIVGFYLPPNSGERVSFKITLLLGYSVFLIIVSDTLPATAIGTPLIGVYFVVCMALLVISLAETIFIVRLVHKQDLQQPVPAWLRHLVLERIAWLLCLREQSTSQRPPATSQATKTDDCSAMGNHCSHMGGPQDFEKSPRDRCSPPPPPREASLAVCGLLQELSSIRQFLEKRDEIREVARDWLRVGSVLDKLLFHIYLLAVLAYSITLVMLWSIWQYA

[2] = system: vomiting induced by cisplatin in ferrets; assay: Cisplatin-induced emesis in ferrets, single oral administration; format: in vivo, ferret; conditions: for Proportion of animal vomiting: 60 min before cisplatin i.v., 5 h observation
Protocol: Cisplatin-induced emesis in ferrets is largely considered as the most suitable animal model for the study of drug activity against chemotherapy-induced vomiting in man (Georges L. King. Animal models in the study of vomiting. Can. J. Physiol. Pharmacol. 68, 260-268, 1988).
Three compounds, dixyrazine dihydrochloride and its (R) and (S) enantiomers were tested for their activity against vomiting induced by cisplatin in ferrets following single oral administration.
The study involved 14 groups of 8 male ferrets weighing between 0.93 kg and 1.45 kg purchased from the company MARSHALL FARMS (NEW YORK, U.S.). Groups were defined as follows: […]
group 1: control group dosed with the vehicle of test substances (sterile water),
group 2: method-control group dosed with a method-control substance, granisetron ([…], RBI®), at a dose of 0.3 mg/kg,
group 3 to 6: group dosed with diyyrazine dihydrochloride at 4 increasing doses of 7.5, 15, 30 and 60 mg/kg,
group 7 to 10: group dosed with the (R) enantiomer of dixyrazine dihydrochloride at 4 increasing doses of 7.5, 15, 30 and 60 mg/kg,
group 11 to 14: group dosed with the (S) enantiomer of drazine dihydrochloride at 4 increasing doses of 7.5, 15, 30 and 60 mg/kg.
On the day prior to the test, animals were fasted and allowed access only to water.
On the morning of the day of the study, free access to food was allowed for 30 minutes. Subsequently, animals were again put on to a water-only fast for 30 minutes before administration of the three compounds, the vehicle or the method-control substance which were administrated orally in a volume of 5 ml/kg.
Cisplatin was administrated by the intravenous route at a dose of 115 mg/m^2 and in a volume of 115 ml/m^2 (i.e. approximately at 10 mg/kg), 60 minutes after treatment. […] Emesis was characterised by abdominal contractions, which were associated with expulsion or attempted expulsion of stomach contents.
The time to onset of emesis was noted. The number of episodes of vomiting and the number of abdominal retches associated with episodes of emesis were also noted.

[3] = target: human H1 histaminic receptor (Homo sapiens, UniProt P35367); assay: Radioligand binding, human H1 receptor (CHO cell culture)
Protocol: (§1) The test substances, biological materials and experimental protocols used in the study are described in Moguilevsky N. et al. (1994) Eur. J. […] List S. J. (1981) Proc. Natl. Acad. Sci.78:2620-2624; MacKenzie R. G. et al. (1994) Eur. J. Pharmacol. 266:79-85; Van Tol et al., (1992) Nature, 358:149-152. […] Filtermat A, Walac), then washed with cold buffer using a filtration unit ‘Cell Harvester’ (Brandel, Packard or Tomtec). The bound radioactivity is measured using a scintillation liquid (Formula 989 or Microscint 0, Packard) or solid (Meltilex B/HS, Wallac), and a scintillation counter (LS 6000, Beckman; Topcount, Packard; Betaplate, Wallac). […] Each experiment was performed in duplicate (n=2). In parallel, a positive control (concentration of reference substance causing 50% inhibition of radioligand specific binding) is tested to validate the assay. For competition experiments, membranes are incubated in the buffer containing the radioligand and increasing concentrations of unlabeled test substances. Each binding assay is validated with a reference compound tested in parallel. […] where BO and BI represent the total binding in the absence and presence of the unlabelled drug (in dpm/assay) and NSB is the amount of non specific binding (in dpm/assay). Analysis of raw data and pIC50 calculation is performed by computerized non-linear curve fitting methods using a set of equations describing competitive interactions between labelled and unlabeled ligands which obey the law of mass action. IC50 represents the concentration of the test substance inhibiting 50% of the specific binding of the radioligand. It is determined in competitive binding experiments by measuring the binding of a single concentration of a radioactive ligand at equilibrium with various concentrations of the unlabeled test substance. pIC50=−log IC50

[4] = target: D2 dopaminergic receptor (Rattus norvegicus, UniProt P61169); assay: Radioligand binding, D2 receptor (rat striatum membranes)
Protocol: as §1

[5] = target: T2, 5-HT2 serotonergic receptor (Rattus norvegicus, UniProt P14842); assay: Radioligand binding, 5-HT2 receptor (rat cerebral cortex)
T2 construct: the rat cerebral cortex (5-HT2 receptor); from tissue; host or cells: rat cerebral cortex
Protocol: as §1

[6] = target: T3, human D3 dopaminergic receptor (Homo sapiens, UniProt P35462); assay: Radioligand binding, human D3 receptor (CHO cell culture)
T3 construct: expressed in transfected cells; host or cells: CHO
Protocol: as §1

[7] = highest dose of 60 mg/kg p.o., 60 mg/kg

T3 sequence (P35462 whole entry): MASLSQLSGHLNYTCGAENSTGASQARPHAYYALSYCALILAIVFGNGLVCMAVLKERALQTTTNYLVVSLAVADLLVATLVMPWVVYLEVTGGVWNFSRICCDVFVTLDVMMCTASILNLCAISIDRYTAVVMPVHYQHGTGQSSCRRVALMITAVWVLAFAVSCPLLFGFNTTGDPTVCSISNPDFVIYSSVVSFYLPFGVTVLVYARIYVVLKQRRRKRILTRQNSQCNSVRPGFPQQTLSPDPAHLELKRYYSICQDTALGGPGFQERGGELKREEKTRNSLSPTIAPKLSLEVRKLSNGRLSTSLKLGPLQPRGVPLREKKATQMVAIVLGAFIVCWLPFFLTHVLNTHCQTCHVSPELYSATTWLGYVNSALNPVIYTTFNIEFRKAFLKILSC
Sequence of human H1 histaminic receptor (P35367 whole entry): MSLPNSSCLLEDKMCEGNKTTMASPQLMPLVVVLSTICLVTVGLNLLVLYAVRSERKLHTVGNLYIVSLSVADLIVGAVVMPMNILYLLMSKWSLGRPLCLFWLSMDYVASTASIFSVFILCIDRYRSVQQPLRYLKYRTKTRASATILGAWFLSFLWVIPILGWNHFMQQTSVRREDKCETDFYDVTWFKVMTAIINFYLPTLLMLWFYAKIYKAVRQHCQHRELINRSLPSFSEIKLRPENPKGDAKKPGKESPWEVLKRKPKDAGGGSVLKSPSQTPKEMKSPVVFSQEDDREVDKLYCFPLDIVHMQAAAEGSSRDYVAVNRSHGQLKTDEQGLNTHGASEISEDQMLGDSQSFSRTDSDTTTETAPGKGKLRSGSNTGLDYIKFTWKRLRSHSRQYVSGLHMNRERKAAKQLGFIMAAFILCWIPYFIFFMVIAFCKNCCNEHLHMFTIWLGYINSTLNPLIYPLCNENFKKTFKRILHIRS
T2 sequence (P14842 whole entry): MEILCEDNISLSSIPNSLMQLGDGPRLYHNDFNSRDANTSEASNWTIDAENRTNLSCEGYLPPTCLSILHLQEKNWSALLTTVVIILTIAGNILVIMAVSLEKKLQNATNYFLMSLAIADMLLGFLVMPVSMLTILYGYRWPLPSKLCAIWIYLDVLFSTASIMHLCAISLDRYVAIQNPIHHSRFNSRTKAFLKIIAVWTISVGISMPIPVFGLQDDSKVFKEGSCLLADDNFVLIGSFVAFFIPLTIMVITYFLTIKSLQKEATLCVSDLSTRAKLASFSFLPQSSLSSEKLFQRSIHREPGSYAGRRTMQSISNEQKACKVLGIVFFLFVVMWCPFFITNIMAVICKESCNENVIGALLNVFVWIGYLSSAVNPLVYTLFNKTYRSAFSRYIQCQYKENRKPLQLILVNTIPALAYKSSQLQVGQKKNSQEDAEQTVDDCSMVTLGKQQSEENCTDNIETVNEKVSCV
Sequence of D2 dopaminergic receptor (P61169 1-415 isoform P61169-2): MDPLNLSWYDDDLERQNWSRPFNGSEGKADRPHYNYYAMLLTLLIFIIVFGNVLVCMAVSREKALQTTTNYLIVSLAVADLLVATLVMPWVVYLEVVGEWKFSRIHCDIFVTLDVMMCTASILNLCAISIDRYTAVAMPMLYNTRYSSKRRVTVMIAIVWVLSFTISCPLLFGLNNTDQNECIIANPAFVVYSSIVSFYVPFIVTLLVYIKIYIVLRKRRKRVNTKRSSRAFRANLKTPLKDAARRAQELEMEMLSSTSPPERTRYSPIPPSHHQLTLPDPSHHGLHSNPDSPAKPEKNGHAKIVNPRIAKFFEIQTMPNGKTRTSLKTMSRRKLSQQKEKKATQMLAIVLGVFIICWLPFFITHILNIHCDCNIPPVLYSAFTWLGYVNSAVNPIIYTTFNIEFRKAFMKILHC

CC(CN1CCN(CCOCCO)CC1)CN1c2ccccc2Sc2ccccc21 (racemic) [Dixyrazine, 2-(2-(4-(2-methyl-3-(10H-phenothiazin-10-yl)propyl)-1-piperazinyl)ethoxy)ethanol, reference compound] was tested, and the inhibition at 0.1 µM ([1]; 5-HT3, 0.1 μM) was < 10%, the inhibition at 10 µM ([1]; 5-HT3, 10 μM) was 26% and the “Time to onset of emesis” value ([2]; 7.5 mg/kg p.o.) was 90 min. For the same compound, the “Proportion of animal vomiting” value ([2]; 7.5 mg/kg p.o.) was 8/8, the “Time to onset of emesis” value ([2]; 15 mg/kg p.o.) was 76 min and the “Proportion of animal vomiting” value ([2]; 15 mg/kg p.o.) was 5/8. The “Time to onset of emesis” value ([2]; 30 mg/kg p.o.) was 73 min, the “Proportion of animal vomiting” value ([2]; 30 mg/kg p.o.) was 7/8 and the “Time to onset of emesis” value ([2]; 60 mg/kg p.o.) was 81 min. The “suppression of vomiting, number of animals” value ([2]; 60 mg/kg p.o.) was 5 animals out of 8, the “Proportion of animal vomiting” value ([2]; 60 mg/kg p.o.) was 3/8* and the “antiemetic effect (in words)” value [2, 7] was “induced an antiemetic effect”. The “effect on time to onset of emesis (in words)” value [2, 7] was “no effect; also recorded: did not alter this variable”, the “antiemetic effect (in words)” value ([2]; highest dose of 60 mg/kg p.o., listed as dixyrazine dihydrochloride, 60 mg/kg) was “significantly reduce cisplatin-induced emesis” and the “percent inhibition of control specific binding” value (shortened to “percent inhibition”) ([3]; H1, 10 μM, mean of duplicate, 10 µM) was 100%. The inhibition at 10 µM ([3]; H1, 10 μM, mean of duplicate, read-out: percent inhibition of control specific binding) was > 90%, the IC50 ([3]; H1, competitive binding, read-out: Affinity pIC50 (-log IC50) (converted)) was 0.501 nM and the “percent inhibition” value ([4]; D2, 10 μM, mean of duplicate, 10 µM) was 94%. The inhibition at 10 µM ([4]; D2, 10 μM, mean of duplicate, read-out: percent inhibition of control specific binding) was > 90%, the IC50 ([4]; D2, competitive binding, read-out: Affinity pIC50 (-log IC50) (converted)) was 5.01 nM and the “percent inhibition” value ([5]; 5-HT2, 10 μM, mean of duplicate, 10 µM) was 102%. For the same compound, the IC50 ([5]; 5-HT2, competitive binding, read-out: Affinity pIC50 (-log IC50) (converted)) was 6.31 nM, the inhibition at 10 µM ([5]; read-out: percent inhibition of control specific binding, 5-HT2, 10 μM, mean of duplicate) was > 90% and the inhibition at 0.1 µM ([6]; D3, 0.1 μM, mean of duplicate, read-out: percent inhibition of control specific binding) was 84%. The “percent inhibition” value ([6]; D3, 10 μM, mean of duplicate, 10 µM) was 100%, the inhibition at 10 µM ([6]; D3, 10 μM, mean of duplicate, read-out: percent inhibition of control specific binding) was > 90% and the IC50 ([6]; D3, competitive binding, read-out: Affinity pIC50 (-log IC50) (converted)) was 50.1 nM.
